According to ChEMBL document CHEMBL1122204 (J Med Chem, 1982):

Test: Approximate pKa value of compound was determined
Assay type: physicochemical
Conditions: not given

Compound | Approx. pKa
CC/C(=C(\c1ccccc1)c1ccc(OCCn2cccc2)cc1)c1ccccc1 | -3.8

Same assay, conditions: read-out: Approx. pKa

Compound | pKa
CC/C(=C(\c1ccccc1)c1ccc(OCCN2CCCC2)cc1)c1ccccc1 | 11.3
CC/C(=C(\c1ccccc1)c1ccc(OCCN2CCN(C)CC2)cc1)c1ccccc1 | 9.8
CC/C(=C(\c1ccccc1)c1ccc(OCCN2CCOCC2)cc1)c1ccccc1 | 8.7
CC/C(=C(\c1ccccc1)c1ccc(OCCCN2CCCC2)cc1)c1ccccc1 | 11.3
CC/C(=C(\c1ccccc1)c1ccc(OCCN=C(N)N)cc1)c1ccccc1 | 13.7
CC/C(=C(\c1ccccc1)c1ccc(OCCN2CCCCC2)cc1)c1ccccc1 | 11.2
CC/C(=C(\c1ccccc1)c1ccc(OCCN(CC)CC)cc1)c1ccccc1 | 10.9
CC/C(=C(\c1ccccc1)c1ccc(OCCN(C)C)cc1)c1ccccc1 [TAMOXIFEN] | 10.8
